In patent publication US20240208969A1, “SUBSTITUTED FUSED BICYCLIC COMPOUNDS AS PARP INHIBITORS AND THE USE THEREOF” (IMPACT THERAPEUTICS (SHANGHAI), INC., priority 2021, published 2024) one finds IC50 data, which are given here for 26 compounds.

This assay deals with MDA-MB-436 cells. The assay is described as follows: Inhibition of proliferation of human breast cancer MDA-MB-436 cell line (CCK-8, 7 days). The assay is classed as cell-based. To be noted: Homo sapiens, 168 h, proliferation of MDA-MB-436, 7 days. The procedure:
The cells were cultured in complete medium (DMEM medium +10% FBS+Insulin+glutathione). When the confluence reached about 80%, cells were digested and gently dispensed from the bottom of the dish with a 1 mL pipette. Cell suspension was collected and centrifuged at 500 rpm for 3 min. The supernatant was discarded, and the cell pellet were re-suspended in complete medium. The cells were seeded into a culture dish at an appropriate proportion, and then cultured in a 5% CO2 incubator at 37° C. The assay was carried out when the cells were in optimum condition and the confluence was reached 80%. Cells were harvested in the logarithmic growth phase by using 1 mL pipette gently and then centrifugated at 500 rpm for 3 min. The cells were resuspended by using refresh medium after removing the supernatant and then the cells were counted. The cells were seeded at 3000/well in a 96 well plate and incubated at 37° C. 5% CO2 incubator overnight. In the second day, cells were treated with compound at 8 serially diluted dose with 1000×final concentration in 100% DMSO. The compound was prepared as below: 1000×dilution tested compound solution to 40×test compound solution by adding 5μL, 1000×compound solution to 120 μL Medium (25-fold dilution). The solution was mixed by oscillation. DMSO was used as the control.
The medium was removed from the wells in the plate after the plate was taken out from incubator. Then, fresh medium of 195 μL/per well was added to the 96 well plate. 5μL/per well of 40×test compound solution was added into the 96 well plate. Finally, the plate was incubated for 7 days in a 37° C. 5% CO2 incubator. The medium containing compound was changed once on the fourth day. After 7 days, 20 μL of CCK-8 was added to each well and shake gently, then was cultured for 4 hours. The plate was shaken for 5 min after incubation, the absorbance values of 450 nm. and 650nm wavelengths were recorded respectively (OD=absorbance value of 450 nm−absorbance value of 650 nm) by using the multifunction readout instrument.
Data were analyzed by software GraphPad Prism 6.0. The inhibitory activity of compounds on cell proliferation was plotted using cell survival rate against the compound concentration as coordinates. Cell survival rate %=(ODcompound−ODbackground)/(ODDMSO−ODbackground)×100. The IC50 value was fitted by the s-shaped dose response curve equation: Y=100/(1+10^(log C−log IC50)), and C was the compound concentration.
Table 2 summarizes the inhibitory effect data (IC50) of the compounds on the proliferation of human breast cancer cells MDA-MB-436, wherein ++++ indicates 1<IC50≤10 nM; +++ indicates 10 nM<IC50≤100 nM; ++ indicates 100 nM<IC50≤1 μM; + indicates IC50>1 μM.
For orientation: IC50 means the concentration that inhibits the measured activity by half. For the compound `CCn1c(=O)[nH]c2cc(CN3CCC(c4ccc(C(=O)NC)nc4C)CC3)ccc2c1=O` [Example 58, 5-(1-((3-ethyl-2,4-dioxo-1,2,3,4-tetrahydroquinazolin-7-yl)methyl)piperidin-4-yl)-N,6-dimethylpicolinamide], the IC50 is over 1000 nM. Under `CNC(=O)c1ccc(N2CCN(Cc3ccc4c(=O)n(CC(F)(F)F)c(=O)[nH]c4c3)CC2)c(C)n1` [Example 87, 5-(4-((2,4-dioxo-3-(2,2,2-trifluoroethyl)-1,2,3,4-tetrahydroquinazolin-7-yl)methyl)piperazin-1-yl)-N,6-dimethylpicolinamide] stands over 1000 nM.

With `CCn1c(=O)[nH]c2cc(-c3cccc(C(=O)Nc4ccc(C(=O)NC)nc4)n3)ccc2c1=O` [Example 46, 6-(3-ethyl-2,4-dioxo-1,2,3,4-tetrahydroquinazolin-7-yl) -N-(6-(methylcarbamoyl)pyridin-3-yl)picolinamide], the IC50 lay in the range of 100 to 1000 nM.

For `CCNC(=O)c1ccc(N2CCN(Cc3ccc4c(c3)NC(=O)N(CC)C4)CC2)c(Cl)n1` [Example 118, 5-(4-((3-ethyl-2-oxo-1,2,3,4-tetrahydroquinazolin-7 yl)methyl)piperazin-1-yl)-6-chloro-N-ethylpicolinamide], the IC50 is 10 to 100 nM. Under `CCn1c(=O)[nH]c2cc(CN3CCN(c4c(C)cc(C(=O)NC)nc4C)CC3)ccc2c1=O` [Example 72, 5-(4-((3-ethyl-2,4-dioxo-1,2,3,4-tetrahydroquinazolin-7-yl)methyl)piperazin-1-yl)-N,4,6-trimethylpicolinamide] stands over 1000 nM. `CCn1c(=O)[nH]c2cc(CN3CCN(c4ccc5c(c4)CCN(C)C5=O)CC3)ccc2c1=O` [Example 36, 3-ethyl-7-((4-(2-methyl-1-oxo-1,2,3,4-tetrahydroisoquinolin-6-yl)piperazin-1-yl)methyl)quinazoline-2,4(1H,3H)-dione] gave an IC50 of over 1000 nM. For `CCn1c(=O)[nH]c2cc(CN3CCN(c4ccc(C(=O)N(C)C)nc4F)CC3)ccc2c1=O` [Example 39, 5-(4-((3-ethyl-2,4-dioxo-1,2,3,4-tetrahydroquinazolin-7-yl)methyl)piperazin-1-yl)-6-fluoro-N,N-dimethylpicolinamide], the IC50 is over 1000 nM.

With `CCn1c(=O)[nH]c2cc(CN3CCN(c4ccc(C(=O)NC)nc4C)CC3)c(C)cc2c1=O` [Example 52, 5-(4-((3-ethyl-6-methyl-2,4-dioxo-1,2,3,4-tetrahydroquinazolin-7-yl)methyl)piperazin-1-yl)-N,6-dimethylpicolinamide], the half-inhibitory concentration (IC50) is over 1000 nM.

Consider `CCn1c(=O)[nH]c2cc(CN3CCN(c4ccc(C(=O)NC)nc4C)CC3)cc(Cl)c2c1=O` [Example 59, 5-(4-((5-chloro-3-ethyl-2,4-dioxo-1,2,3,4-tetrahydroquinazolin-7-yl)methyl)piperazin-1-yl)-N,6-dimethylpicolinamide], for which the IC50 was in the range of 10 to 100 nM. The compound `CCNC(=O)c1ccc(N2CCN(Cc3cc(Cl)c4c(=O)n(CC)c(=O)[nH]c4c3)CC2)c(Cl)n1` [Example 126, 6-chloro-5-(4-((5-chloro-3-ethyl-2,4-dioxo-1,2,3,4-tetrahydroquinazolin-7-yl)methyl)piperazin-1-yl)-N-ethylpicolinamide] came in with an IC50 of 1 to 10 nM. For the compound `CCn1c(=O)[nH]c2cc(CN3CCN(c4ccc(C(=O)NC5CC5)nc4Cl)CC3)cc(Cl)c2c1=O` [Example 131, 6-chloro-5-(4-((5-chloro-3-ethyl-2,4-dioxo-1,2,3,4-tetrahydroquinazolin-7-yl)methyl)piperazin-1-yl)-N-cyclopropylpicolinamide], the half-inhibitory concentration (IC50) fell in the range of 1 to 10 nM. Under `CCN1Cc2ccc(CN3CCN(c4ccc(C(=O)NC5CC5)nc4C)CC3)cc2NC1=O` [Example 137, N-cyclopropyl-5-(4-((3-ethyl-2-oxo-1,2,3,4-tetrahydroquinazolin-7-yl)methyl)piperazin-1-yl)-6-methylpicolinamide] stands 10 to 100 nM; under `CCn1c(=O)[nH]c2cc(CN3CCN(c4ccn5c(=O)ccnc5c4)CC3)ccc2c1=O` [Example 38, 3-ethyl-7-((4-(4-oxo-4H-pyrido[1,2-a]pyrimidin-8-yl)piperazin-1-yl)methyl)quinazoline-2,4(1H,3H)-dione], over 1000 nM; under `CNC(=O)c1ccc(N2CCN(Cc3ccc4c(=O)n(CCF)c(=O)[nH]c4c3)CC2)c(C)n1` [Example 20, 5-(4-((3-(2-fluoroethyl)-2,4-dioxo-1,2,3,4-tetrahydroquinazolin-7-yl)methyl)piperazin-1-yl)-N,6-dimethylpicolinamide], 100 to 1000 nM.

Take `CCn1c(=O)[nH]c2cc(CN3CCN(c4ccc(C(=O)NC)nc4C(F)(F)F)CC3)ccc2c1=O` [Example 23, 5-(4-((3-ethyl-2,4-dioxo-1,2,3,4-tetrahydroquinazolin-7-yl)methyl)piperazin-1-yl)-N-methyl-6-(trifluoromethyl)picolinamide]: the 50% inhibitory concentration (IC50) is 100 to 1000 nM.

For `CCNC(=O)c1ccc(N2CCN(Cc3cc(F)c4c(=O)n(CC)c(=O)[nH]c4c3)CC2)c(C)n1` [Example 82, N-ethyl-5-(4-((3ethyl-5-fluoro-2,4-dioxo-1,2,3,4-tetrahydroquinazolin-7-yl)methyl)piperazin-1-yl)-6-methylpicolinamide], the IC50 was in the range of 10 to 100 nM.

With `CCn1c(=O)[nH]c2cc(CN3CCN(c4cnc(C(=O)NC)cn4)CC3)ccc2c1=O` [Example 57, 5-(4-((3-ethyl-2,4-dioxo-1,2,3,4-tetrahydroquinazolin-7-yl)methyl)piperazin-1-yl)-N-methylpyrazine-2-carboxamide], the IC50 is over 1000 nM. Under `CCn1c(=O)[nH]c2cc(CN3CCN(c4ccc5c(c4)CCNC5=O)CC3)ccc2c1=O` [Example 37, 3-ethyl-7-((4-(1-oxo-1,2,3,4-tetrahydroisoquinolin-6-yl)piperazin-1-yl)methyl)quinazoline-2,4(1H,3H)-dione] stands over 1000 nM; under `CCn1c(=O)[nH]c2cc(CN3CCN(c4ccc(C(=O)NC)nc4C(F)F)CC3)ccc2c1=O` [Example 35, 5-(4-((3-ethyl-2,4-dioxo-1,2,3,4-tetrahydroquinazolin-7-yl)methyl)piperazin-1-yl)-6-(difluoromethyl)-N-methylpicolinamide], 100 to 1000 nM. Consider `CCNC(=O)c1ccc(N2CCN(Cc3cnc4c(=O)n(CC)c(=O)[nH]c4c3)CC2)c(C)n1` [Example 103, N-ethyl-5-(4-((3-ethyl-2,4-dioxo-1,2,3,4-tetrahydropyrido[3,2-d]pyrimidin-7-yl)methyl)piperazin-1-yl)-6-methylpicolinamide], for which the half-maximal inhibitory concentration (IC50) was in the range of 10 to 100 nM. Under `CCn1c(=O)[nH]c2cc(CN3CCN(c4ccc(C(=O)NC)nc4C(C)C)CC3)ccc2c1=O` [Example 80, 5-(4-((3-ethyl-2,4-dioxo-1,2,3,4-tetrahydroquinazolin-7-yl)methyl)piperazin-1-yl)-6-isopropyl-N-methylpicolinamide] stands over 1000 nM; under `CCn1c(=O)[nH]c2cc(CN3CCN(c4ccc(C(=O)NC)cc4C)CC3)ccc2c1=O` [Example 71, 4-(4-((3-ethyl-2,4-dioxo-1,2,3,4-tetrahydroquinazolin-7-yl)methyl)piperazin- -yl)-N,3-dimethylbenzamide], over 1000 nM; under `CCn1c(=O)[nH]c2cc(CN3CCN(c4ccc(C(=O)NC)nc4F)CC3)cnc2c1=O` [Example 9, 5-(4-((3-ethyl-2,4-dioxo-1,2,3,4-tetrahydropyrido[3,2-d]pyrimidin-7-yl)methyl)piperazin-1-yl)-6-fluoro-N-methylpicolinamide], 100 to 1000 nM. `CCNC(=O)c1ccc(N2CCN(Cc3ccc4c(=O)n(CC)c(=O)[nH]c4c3)CC2)c(Br)n1` [Example 95, 6-bromo-N-ethyl-5-(4-((3-ethyl-2,4-dioxo-1,2,3,4-tetrahydroquinazolin-7-yl)methyl)piperazin-1-yl)picolinamide] gave an IC50 of 10 to 100 nM. Under `CCNC(=O)c1ccc(N2CCN(Cc3cc(F)c4c(c3)NC(=O)N(CC)C4)CC2)c(C)n1` [Example 121, N-ethyl-5-(4-((3-ethyl-5-fluoro-2-oxo-1,2,3,4-tetrahydroquinazolin-7-yl)methyl)piperazin-1-yl)-6-methylpicolinamide] stands 10 to 100 nM; under `CNC(=O)c1ccc(N2CCN(Cc3cnc4c(=O)n(C)c(=O)[nH]c4c3)CC2)cn1` [Example 2, 5-(4-((3-methyl-2,4-dioxo-1,2,3,4-tetrahydropyrido[3,2-d]pyrimidin-7-yl)methyl)piperazin-1-yl)-N-methylpicolinamide], over 1000 nM.
